The values that follow come from paper PMC4102529, “FRET Based Quantification and Screening Technology Platform for the Interactions of Leukocyte Function-Associated Antigen-1 (LFA-1) with InterCellular Adhesion Molecule-1 (ICAM-1)” (PLoS ONE, 2014).

The test system of assay [1] is I-domain of LFA-1 (CD11a I-domain). Particulars: ref [58]; cited from earlier work. The source says: In our study, we identified three LFA-1 derived peptides, CD11a237–261, […], and CD11a456–465, to compare their inhibition efficiency via our steady-state FRET based competitive screening assay. Moreover, the inhibition efficiency of lovastatin, a well-known potent inhibitor of the ICAM-1 interaction, was also obtained to further validate the FRET screening platform. ...

For assay [2], the system named is interaction of ICAM-1 with LFA-1. More on the design: method as in PMID 12368073. The following applies: ref [34]; cited from earlier work. The source says:
Based on these roles in several disease pathologies, the LFA-1/ICAM-1 interaction can serve as a potential therapeutic target in the development of new therapies for the autoimmune diseases, metastasis cancer, and viral diseases. […] Furthermore, several […] therapies were developed for the treatment of autoimmune diseases. However, […] therapies have serious side effects in humans due to their large molecular structure an ...

Assay [3] has as its system human immunodeficiency virus type 1. Particulars: ref [59]; cited from earlier work.
The subject of assay [4] is LFA-1/D1-D2-Fc (ICAM-1) interaction. Kind of assay: Steady-state FRET based competitive screening assay for inhibition of the LFA-1/D1-D2-Fc interaction. Particulars: for inhibition efficiency: 100 nM Alexa Fluor 488-LFA-1 + 100 nM Alexa Fluor 555-D1-D2-Fc, PBS, pH 7.4, 1 mM EGTA, 2 mM Mg^2+, 30 min, dark, calculated from FRET efficiency, Eq. (1); for FRET efficiency: mean ± rms, control without inhibitor 53.51 ± 0.10%, A/D = 2.12, excitation 470 nm, Eq. (3); for rank of inhibition efficiency among the three LFA-1 derived peptides: 0.02, 0.2, 2 and 20 µM. Type of assay: binding, human. As for the experimental part: But with increasing concentration of the lovastatin, the FRET efficiency decreased to 5.3% for 200 µM of lovastatin. The inhibition efficiency (%) was calculated for each concentration of lovastatin using the relation,
[drawing 1] (1) where Fcontrol is the FRET efficiency of the Alexa Fluor 488-LFA-1 and Alexa Fluor 555-D1-D2-Fc alone and Fx is that of the FRET mixture when incubated with inhibitors. The inhibition efficiency of lovastatin was calculated to be 69.48±0.77%, 73.84±0.56%, 84.98±0.10%, and 90.03±0.06% for 0.2, 2, 20, and 200 µM respectively [Fig. 7(a)].
To characterize and compare the inhibitory activity of the selected peptides, CD11a237–261, CD11a441–465, and CD11a456–465, the FRET mixture was incubated with several concentrations (0.02, 0.2, 2, and 20 µM) of the peptides (following the procedure described in the “Materials and Methods” section) and the FRET efficiency (Tables S3, S4, S5) and the inhibition efficiency [Fig. 7(b)] were calculated for each case. The inhibition efficiency for CD11a237–261 at 0.02, 0.2, 2, and 20 µM are 40.81±0.31%, 47.05±0.56%, 53.16±0.70%, 65.13±0.81%, respectively; the corresponding values for CD11a441–465, at the same concentrations, are 20.89±0.72%, 37.08±0.29%, 46.93±0.89%, 62.01±0.15%, respectively; and for CD11a456–465, the corresponding values are 12.17±0.91%, 20.26±0.69%, 36.46±0.42%, 51.41±0.33%. From these values, we note that the difference in inhibition efficiency of these three peptides is much more significant at low peptide concentration (on the order of 0.02 to 0.2 µM), the cause of which requires further investigation. Nevertheless, in all cases, the inhibition efficiency of CD11a237–261 is highest and CD11a456–465 the lowest, which are in good agreement with those reported in the literature.
The FRET efficiency can be adjusted by changing the fluorophore to protein ratio; the optimal acceptor to donor fluorophore (A/D) ratio was obtained following the procedure reported in the literature with slight modification. In short, A/D is defined as the number of the acceptor fluorophore molecules to donor molecule in the interacting protein complex. Several concentration ratios of Alexa Fluor 488-LFA-1 and Alexa Fluor 555-D1-D2-Fc were incubated for 30 minutes at room temperature and the FRET emission spectra were obtained via a fluorescence multiplate reader, Tecan Infinite M200 pro (Männedorf, Switzerland). For each concentration ratio, the concentration of the acceptor conjugate, Alexa Fluor 555-D1-D2-Fc, was kept constant. The optimal A/D ratio for the FRET pair was selected by comparing the FRET efficiencies for different A/D ratios. […] Due to these facts, we have used equation (3), [65] given below for the FRET efficiency (E) calculation which incorporates the cross-talk corrections for each of the A/D ratios. [drawing 3] (3) here, (λ470, λ) denotes the numerical integral of the emission spectrum between 560 and 610 nm when excited with 470 nm. fDA, fA, and fD represent the emission spectra of the FRET mixture, acceptor alone, and donor alone, respectively. The absorbance values of donor and acceptor, at the excitation maximum of Alexa Fluor 488 of 470 nm, is represented by A^D and A^A, respectively. […] In this article, the calculation was implemented assuming that there […] in the overlap integral with different F/P and the (associated) different A/D ratios. The optimal A/D ratio was used for the development of the FRET based screening platform for the assessment of peptides and small molecules for their inhibition efficiency of the LFA-1 and ICAM-1 interactions.
The donor, Alexa Fluor 488-LFA-1, with a concentration corresponding to the […] A/D ratio was mixed with each kind of LFA-1 derived peptides (CD11a237–261, CD11a441–465, and CD11a456–465) in PBS, pH 7.4, 1 mM EGTA and 2 mM Mg^2+. […]

Take `CC[C@H](C)C(=O)O[C@H]1C[C@@H](C)C=C2C=C[C@H](C)[C@H](CC[C@@H]3C[C@@H](O)CC(=O)O3)[C@H]21` [lovastatin, reference compound]: the “binding to the I-domain of LFA-1” value in assay [1] is given as “binds with the highly conserved I-domain of LFA-1”. Further, in assay [2], the “inhibition of the interaction of ICAM-1 with LFA-1” value is listed as “specifically inhibits the interaction of ICAM-1 with LFA-1”. Moreover, the “effect on HIV-1 replication” value in assay [3] is listed as “reduction of human immunodeficiency virus type 1 replication”. Besides, the inhibition efficiency in assay [4] (0.2 µM inhibitor) is reported as 69.48±0.77%; in assay [4] (2 µM inhibitor) it was 73.84±0.56%; in assay [4] (20 µM inhibitor), 84.98±0.10%; in assay [4] (200 µM inhibitor), 90.03±0.06%. For the same compound, the FRET efficiency in assay [4] (0.2 µM inhibitor) was found to be 16.33 ± 0.76%; in assay [4] (2 µM inhibitor), 14.00 ± 0.57%; in assay [4] (20 µM inhibitor), 8.03 ± 0.01%; in assay [4] (200 µM inhibitor), 5.3%; in assay [4] (200 µM inhibitor, listed as Lovastatin) it was 5.33 ± 0.01%.
As to “APLFY- GEQRG [CD11a456–465, LFA-1α derived peptide, purchased from GenScript]”, the inhibition efficiency in assay [4] (0.02 µM inhibitor) is 12.17±0.91%; in assay [4] (0.2 µM inhibitor), 20.26±0.69%; in assay [4] (2 µM inhibitor) it was 36.46±0.42%; in assay [4] (20 µM inhibitor), 51.41±0.33%. The FRET efficiency in assay [4] (0.02 µM inhibitor) is on record as 47.00 ± 0.81%; in assay [4] (0.2 µM inhibitor), 42.67 ± 0.57%; in assay [4] (2 µM inhibitor), 34.00 ± 0.08%; in assay [4] (20 µM inhibitor) it was 26.00 ± 0.58%. In addition, the “rank of inhibition efficiency among the three LFA-1 derived peptides” value in assay [4] is on record as “the lowest”.
“GVDVDQDGETEL-IGAPLFYGEQRG [CD11a441–465, LFA-1α derived peptide, purchased from GenScript]”: the inhibition efficiency in assay [4] (0.02 µM inhibitor) is 20.89±0.72%; in assay [4] (0.2 µM inhibitor), 37.08±0.29%; in assay [4] (2 µM inhibitor), 46.93±0.89%; in assay [4] (20 µM inhibitor), 62.01±0.15%. Moreover, the FRET efficiency was found to be 42.33 ± 0.23% in assay [4] (0.02 µM inhibitor), 33.67 ± 0.51% in assay [4] (0.2 µM inhibitor), 28.40 ± 0.02% in assay [4] (2 µM inhibitor) and 20.33 ± 0.53% in assay [4] (20 µM inhibitor).
“ITDGEATDSGNIDAAKDIIR-YIIGI [CD11a237–261, LFA-1α derived peptide, purchased from GenScript]”: the inhibition efficiency in assay [4] (0.02 µM inhibitor) was 40.81±0.31%; in assay [4] (0.2 µM inhibitor), 47.05±0.56%; in assay [4] (2 µM inhibitor) it was 53.16±0.70%; in assay [4] (20 µM inhibitor), 65.13±0.81%. Further, the FRET efficiency was determined as 31.67 ± 0.06% in assay [4] (0.02 µM inhibitor), 28.33 ± 0.51% in assay [4] (0.2 µM inhibitor), 25.06 ± 0.66% in assay [4] (2 µM inhibitor) and 18.66 ± 0.06% in assay [4] (20 µM inhibitor). For the same compound, the “rank of inhibition efficiency among the three LFA-1 derived peptides” value in assay [4] is “highest inhibition efficiency”.
